Reference: patent publication US20210261512A1, “NOVEL COMPOUNDS” (INFLAZOME LIMITED, priority 2018, published 2021)

Key:
[1] = biological target: T1, NLRP3 (Homo sapiens, UniProt Q96P20); assay: THP-1 cells pyroptosis assay; type: cell-based; set-up: Seed THP-1 cells (25,000 cells/well) containing 1.0 μg/ml LPS; host or cells: THP-1; details: LPS 1.0 μg/ml, nigericin 5 μM, resazurin readout, 10 μM top dose (Example 2: top dose of 30 μM)
In short: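 THP-1 cells (25,000/well) primed with 1 μg/ml LPS in serum-free RPMI, treated with compound (8-point dilution, 10 μM top unless stated; 0.1% DMSO) 3 h at 37°C, then nigericin 5 μM 1 h. Viability read by resazurin (100 μM, 1-2 h) fluorescence; IC50 from 4-parameter fit.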

[2] = PK, intravenous administration; type: in vivo; details: rat, plasma, male Sprague Dawley rats, dose about 1 mg/kg; for Vd: read-out: Vdss
Procedure: Pharmacokinetic parameters were determined in male Sprague Dawley rats (Vital River Laboratory Animal Technology Co Ltd, Beijing, China, 6-9 weeks old). Animals were maintained under a 12 h light/dark cycle. Animals had free access to food and water, except that orally dosed animals were food deprived overnight prior to the study.
For intravenous administration, compounds were formulated as a solution (in DMSO:water [10:90] or in DMSO:PBS [10:90]) in 2 mL/kg dosing volume and administered via tail vein. For oral administration, compounds were formulated as a solution (in 0.5% methylcellulose in water) in […] dosing volume and administered orally.
Serial blood samples (about 200 μL) were taken from each animal at each of 8 time-points post dose ([…], 0.25, 0.5, 1, 2, 4, 8 and 24 h). Samples were held on ice for no longer than 30 minutes before centrifugation (5,696 rpm (3,000 g) for 15 minutes) for plasma generation. Plasma was frozen on dry ice prior to bioanalysis. PK parameters were generated from LC-MS/MS data using Phoenix WinNonlin 6.3 software.

[3] = biological target: T1, NLRP3; assay: Human whole blood IL1β release assay; type: cell-based; details: LPS 1 μg/ml, nigericin 10 μM, IL-1β AlphaLisa, 10 μM top dose (Example 2: top dose of 30 μM), read-out: HWB IC50
In short: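 Healthy-donor heparinised human whole blood with 1 μg/ml LPS, compound (8-point half-log dilution, 10 μM top dose unless stated; 0.1% DMSO vehicle) for 3 h at 37 °C, then nigericin 10 μM final for 1 h. Supernatant IL-1β by AlphaLISA; IC50 from 4-parameter variable-slope fit.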

T1 sequence (Q96P20 whole entry): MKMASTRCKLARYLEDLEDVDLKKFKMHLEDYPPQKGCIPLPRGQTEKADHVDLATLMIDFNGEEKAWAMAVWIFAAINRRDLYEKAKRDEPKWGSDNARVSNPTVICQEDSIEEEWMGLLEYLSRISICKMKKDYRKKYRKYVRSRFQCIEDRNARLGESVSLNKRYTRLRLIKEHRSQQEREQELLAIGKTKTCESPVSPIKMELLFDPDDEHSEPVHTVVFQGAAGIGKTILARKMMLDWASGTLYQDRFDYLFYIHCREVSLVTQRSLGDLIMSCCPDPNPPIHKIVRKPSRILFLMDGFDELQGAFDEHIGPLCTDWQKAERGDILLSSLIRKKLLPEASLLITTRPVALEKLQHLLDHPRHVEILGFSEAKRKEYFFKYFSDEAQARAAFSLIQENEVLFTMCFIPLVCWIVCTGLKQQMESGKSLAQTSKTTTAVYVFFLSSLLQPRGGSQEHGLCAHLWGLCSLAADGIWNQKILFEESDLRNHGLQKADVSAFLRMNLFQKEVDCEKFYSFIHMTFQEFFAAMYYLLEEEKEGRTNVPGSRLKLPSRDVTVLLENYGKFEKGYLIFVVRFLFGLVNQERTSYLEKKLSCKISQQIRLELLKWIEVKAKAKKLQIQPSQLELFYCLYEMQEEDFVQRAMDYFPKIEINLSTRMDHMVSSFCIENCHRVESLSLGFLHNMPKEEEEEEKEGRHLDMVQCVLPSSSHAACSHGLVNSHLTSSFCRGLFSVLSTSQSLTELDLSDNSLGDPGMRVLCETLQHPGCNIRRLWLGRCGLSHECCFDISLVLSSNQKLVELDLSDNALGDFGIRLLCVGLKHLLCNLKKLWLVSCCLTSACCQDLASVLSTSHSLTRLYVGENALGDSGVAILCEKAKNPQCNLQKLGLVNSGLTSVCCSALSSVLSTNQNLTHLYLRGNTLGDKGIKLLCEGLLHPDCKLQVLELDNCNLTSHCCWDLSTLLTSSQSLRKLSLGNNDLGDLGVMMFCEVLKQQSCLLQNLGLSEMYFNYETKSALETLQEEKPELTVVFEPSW

`CN(C)CCNS(=O)(=O)c1nnc(Nc2c3c(cc4c2CCC4)CCC3)[nH]1` [Example 94, N-(2-(dimethylamino)ethyl)-5-((1,2,3,5,6,7-hexahydro-s-indacen-4-yl)amino)-4H-1,2,4-triazole-3-sulfonamide] gave an IC50 [1] of no more than 1 µM, an AUC [2] of 354 ng·h/mL and a clearance [2] of 47.1 mL/min/kg. For the same compound, the half-life [2] was 78 min, the Vd [2] was 3.21 L/kg and the IC50 [3] was no more than 1 µM.
`CN(C)C1CCN(S(=O)(=O)c2nnc(Nc3c4c(cc5c3CCC5)CCC4)[nH]2)CC1` [Example 118, 1-((5-((1,2,3,5,6,7-hexahydro-s-indacen-4-yl)amino)-4H-1,2,4-triazol-3-yl)sulfonyl)-N,N-dimethylpiperidin-4-amine] gave an IC50 [1] of no more than 0.5 µM, an AUC [2] of 307 ng·h/mL and a clearance [2] of 54.2 mL/min/kg. The half-life [2] was 84 min, the Vd [2] was 4.01 L/kg and the IC50 [3] was no more than 0.5 µM.
`CN(C)CC1CCN(S(=O)(=O)c2nnc(Nc3c4c(cc5c3CCC5)CCC4)[nH]2)C1` (stereo not drawn) [Example 119, 5-((3-((dimethylamino)methyl)pyrrolidin-1-yl)sulfonyl)-N-(1,2,3,5,6,7-hexahydro-s-indacen-4-yl)-4H-1,2,4-triazol-3-amine] gave an IC50 [1] of no more than 0.5 µM, an AUC [2] of 162 ng·h/mL and a clearance [2] of 106 mL/min/kg. It also gave a half-life [2] of 156 min, a Vd [2] of 10.1 L/kg and an IC50 [3] of no more than 0.5 µM.
`CNC1CCN(S(=O)(=O)c2nnc(Nc3c4c(cc5c3CCC5)CCC4)[nH]2)CC1` [Example 130, 1-((5-((1,2,3,5,6,7-hexahydro-s-indacen-4-yl)amino)-4H-1,2,4-triazol-3-yl)sulfonyl)-N-methylpiperidin-4-amine] gave an IC50 [1] of no more than 1 µM, an AUC [2] of 509 ng·h/mL and a clearance [2] of 32.8 mL/min/kg. For the same compound, the half-life [2] was 468 min, the Vd [2] was 10.6 L/kg and the IC50 [3] was no more than 5 µM.
In the case of `CC(C)c1cc(F)cc(-c2ccncc2)c1Cc1nnc(S(=O)(=O)N2CCC(CN(C)C)C2)[nH]1` (stereo not drawn) [Example 153, 1-(1-((5-(4-fluoro-2-isopropyl-6-(pyridin-4-yl)benzyl)-4H-1,2,4-triazol-3-yl)sulfonyl)pyrrolidin-3-yl)-N,N-dimethylmethanamine], the IC50 [1] is reported as no more than 0.5 µM, the AUC [2] is reported as 198 ng·h/mL and the clearance [2] is reported as 84.1 mL/min/kg. It also gave a half-life [2] of 21.6 min, a Vd [2] of 2.66 L/kg and an IC50 [3] of no more than 5 µM.
`COc1cc(-c2cc(F)cc(C(C)C)c2Cc2nnc(S(=O)(=O)N3CCC(CN(C)C)C3)[nH]2)ccn1` (stereo not drawn) [Example 156, 1-(1-((5-(4-fluoro-2-isopropyl-6-(2-methoxypyridin-4-yl)benzyl)-4H-1,2,4-triazol-3-yl)sulfonyl)pyrrolidin-3-yl)-N,N-dimethylmethanamine] gave an IC50 [1] of no more than 1 µM, an AUC [2] of 193 ng·h/mL and a clearance [2] of 103 mL/min/kg. The half-life [2] was 24 min, the Vd [2] was 2.95 L/kg and the IC50 [3] was no more than 5 µM.
Work on `Cn1ccc(S(=O)(=O)c2nnc(Nc3c4c(cc5c3CCC5)CCC4)[nH]2)n1` [Example 176, N-(1,2,3,5,6,7-hexahydro-s-indacen-4-yl)-5-((1-methyl-1H-pyrazol-3-yl)sulfonyl)-4H-1,2,4-triazol-3-amine] yielded an IC50 [1] of no more than 1 µM, an AUC [2] of 814 ng·h/mL and a clearance [2] of 19.1 mL/min/kg. For the same compound, the half-life [2] was 28.4 min, the Vd [2] was 0.41 L/kg and the IC50 [3] was no more than 10 µM.
With `CN1CCC2(C1)CN(S(=O)(=O)c1nnc(Nc3c(-c4ccnc(OC(F)F)c4)ccc4c3CCO4)[nH]1)C2` [Example 212, N-(5-(2-(difluoromethoxy)pyridin-4-yl)-2,3-dihydrobenzofuran-4-yl)-5-((6-methyl-2,6-diazaspiro[3.4]octan-2-yl)sulfonyl)-4H-1,2,4-triazol-3-amine] the IC50 [1] was no more than 0.5 µM, the AUC [2] was 216 ng·h/mL and the clearance [2] was 76.1 mL/min/kg. It also gave a half-life [2] of 11.4 min, a Vd [2] of 0.88 L/kg and an IC50 [3] of no more than 0.5 µM.
In the case of `COc1cc(-c2ccc3c(c2Nc2nnc(S(=O)(=O)N4CC5(CCN(C)C5)C4)[nH]2)CCO3)ccn1` [Example 214, N-(5-(2-methoxypyridin-4-yl)-2,3-dihydrobenzofuran-4-yl)-5-((6-methyl-2,6-diazaspiro[3.4]octan-2-yl)sulfonyl)-4H-1,2,4-triazol-3-amine], the IC50 [1] is reported as no more than 0.5 µM, the AUC [2] is reported as 182 ng·h/mL and the clearance [2] is reported as 78.1 mL/min/kg. It also gave a half-life [2] of 15 min, a Vd [2] of 1.02 L/kg and an IC50 [3] of no more than 0.5 µM.
Compound `COc1cc(-c2ccc3c(c2Nc2nnc(S(=O)(=O)N4CC5(CCN(C)C5)C4)[nH]2)CCC3)ccn1` [Example 215, N-(5-(2-methoxypyridin-4-yl)-2,3-dihydro-1H-inden-4-yl)-5-((6-methyl-2,6-diazaspiro[3.4]octan-2-yl)sulfonyl)-4H-1,2,4-triazol-3-amine] has an IC50 [1] of no more than 0.5 µM, an AUC [2] of 58 ng·h/mL and a clearance [2] of 121 mL/min/kg. For the same compound, the half-life [2] was 31.2 min, the Vd [2] was 2.86 L/kg and the IC50 [3] was no more than 0.5 µM.
